The values below come from article PMC11193748 (Communications Biology, 2024).

Where two headings read alike, the source gives them in different places.

For one test, the system named is C. neoformans. To be noted: cited from earlier work.
The subject of test [1] is P. infestans. To be noted: cited from earlier work.
The target in the next test is T1, LcsG (Purpureocillium lilacinum, UniProt A0A179H2P2).
T1 construct: pACYC-lcsG was generated by integrating the lcsG gene from the PLBJ-1 cDNA into the protein expression vector pACYCDuet-1; His6 (N); His6 (C); made in house; host or cells: E. coli ArcticExpress (DE3)
T1 sequence (A0A179H2P2 1-468): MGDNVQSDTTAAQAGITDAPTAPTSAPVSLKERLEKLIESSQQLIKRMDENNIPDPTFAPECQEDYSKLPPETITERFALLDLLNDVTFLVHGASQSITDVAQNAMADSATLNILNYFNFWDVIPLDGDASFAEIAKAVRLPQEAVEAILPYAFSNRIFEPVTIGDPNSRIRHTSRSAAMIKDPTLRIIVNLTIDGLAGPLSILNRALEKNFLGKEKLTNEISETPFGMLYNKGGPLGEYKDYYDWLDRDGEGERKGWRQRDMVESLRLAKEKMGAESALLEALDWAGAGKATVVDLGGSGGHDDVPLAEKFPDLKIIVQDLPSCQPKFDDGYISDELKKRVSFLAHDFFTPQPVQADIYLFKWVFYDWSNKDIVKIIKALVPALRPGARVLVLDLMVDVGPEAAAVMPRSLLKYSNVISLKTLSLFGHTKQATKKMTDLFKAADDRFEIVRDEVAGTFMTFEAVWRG
Put plainly: Michaelis-Menten enzyme kinetics of LcsG with leucinostatin substrates. In kind it is biochemical, Purpureocillium lilacinum PLBJ-1. To be noted: for Kcat/Km: compound as substrate of LcsG, from the Michaelis-Menten fit; for Kcat / Km: compound as substrate, 1 μM LcsG, 34 °C, 30 min, product formation by LC-MS, nonlinear regression, n = 3. The method, then:
The compounds were quantified by an external standard method and calibration curves were constructed using LeuA0 and LeuK3. In this study, LeuA0 was diluted to concentrations of 25, 50, 100, 250, and 500 nM. LeuK3 was also diluted to concentrations of 50, 100, 250, 500, and 1000 nM. Dilutions were prepared in MeCN, and calibration curves were constructed using the software GraphPad Prism 9.
The kinetic constants of LcsG were determined by the following approach: 1 μM LcsG was assayed against different specific concentrations of the substrates LeuA (2, 4, 8, 10, 20, 40, 80, 100, 120, 150, and 200 μM) and LeuK0 (4, 8, 10, 20, 40, 80, 100, 120, 140, and 160 μM). The initial rate of the reaction was measured by monitoring the formation of products (LeuA0 or LeuK3) at 34 °C for 30 min. The rates were plotted against substrate concentration using the Michaelis‒Menten kinetics equation by nonlinear regression analysis with the software GraphPad Prism 9, and Km and Kcat constants were generated from the resulting Michaelis‒Menten plot.
LC‒MS analyses were performed on an Agilent 1290 Infinity II HPLC with an Agilent Infinity Lab single quadrupole mass selective detector by using an Agilent Zorbax Eclipse Plus C18 reversed-phase column (2.1 × 100 mm, 2.7 μm). Water (A) with 0.1% (v/v) formic acid and acetonitrile (B) were used as the solvents at a flow rate of 0.25 ml min^−1. The substances were eluted with 10% (v/v) B for 1 min, subjected to a linear gradient from 10 to 100% (v/v) B for 12 min, washed with 100% solvent B for 5 min, and equilibrated with 5% solvent B for 10 min at a flow rate of 0.25 ml/min. The mass spectrometer was set in electrospray positive ion mode for ionization.

The test system of test [2] is P. infestans.

Regarding leucinostatin A [LeuA], the “inhibitory effects on C. neoformans” value in the test on C. neoformans is on record as “inhibitory effects”. For the same substance, in the test with P. infestans [1], the “inhibitory effects on P. infestans” value was “inhibitory effects”. At LcsG, the Kcat/Km is 65.39 s⁻¹ M⁻¹, the Kcat was 0.00075 s⁻¹ and the Km amounted to 11.5 µM.

Turning to leucinostatin B [LeuB], the “inhibitory effects on C. neoformans” value in the test on C. neoformans was “inhibitory effects”. Moreover, the “inhibitory effects on P. infestans” value with P. infestans [1] (previous studies) was “inhibitory effects”.

With leucinostatin K0 [LeuK0], the “growth inhibition, agar diffusion assay” value with C. neoformans H99 was “inhibitory effects”. In addition, the “growth inhibition, agar diffusion assay” value with P. infestans [2] is on record as “inhibitory effects”. In addition, on LcsG, the Kcat/Km came out at 32.94 s⁻¹ M⁻¹, the Kcat was determined as 0.00624 s⁻¹ and the Km worked out at 189 µM.
